Data on 5 compounds can be found in US20230095103A1, “COMPOSITIONS AND METHODS CONTAINING REDUCED NICOTINAMIDE RIBOSIDE FOR PREVENTION AND TREATMENT OF LUNG DISEASES AND CONDITIONS” (SOCIETE DES PRODUITS NESTLE S.A., priority 2020, published 2023).

Structures can show the parent of a compound that is named as a salt. Where two headings read alike, the source gives them in different places. A value given as a limit tells only on which side of the number the result lay.

For one series, the target named is T1, adenosine kinase (AK) (Mus musculus, UniProt P55264).
T1 construct: endogenous in cells; host or cells: AML12 cells
T1 sequence (P55264 whole entry): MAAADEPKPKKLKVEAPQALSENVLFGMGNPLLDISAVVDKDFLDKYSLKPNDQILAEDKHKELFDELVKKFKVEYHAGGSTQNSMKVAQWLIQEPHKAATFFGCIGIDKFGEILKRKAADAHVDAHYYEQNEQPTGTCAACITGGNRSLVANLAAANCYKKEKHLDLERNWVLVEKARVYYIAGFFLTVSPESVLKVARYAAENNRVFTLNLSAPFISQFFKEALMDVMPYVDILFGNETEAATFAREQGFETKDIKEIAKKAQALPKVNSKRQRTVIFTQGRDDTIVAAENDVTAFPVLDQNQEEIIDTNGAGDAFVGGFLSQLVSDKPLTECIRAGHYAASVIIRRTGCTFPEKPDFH
Nature of the series: NRH-induced NAD+ synthesis with adenosine kinase inhibitors in AML12 cells. The note with it: for effect of AK inhibitor on the action of NRH (NAD+ synthesis): inhibitor given before NRH treatment. Format: cell-based. The procedure:
AML12 cells were treated with an adenosine kinase inhibitor (5-IT; […]) for 1 hour prior to NRH treatment at the doses indicated. Then, 1 hour later, acidic extracts were obtained to measure NAD^+ levels. All values in the figure are expressed as mean+/−SEM of 3 independent experiments. * indicates statistical difference at p<0.05 vs. the respective vehicle treated group.

For another series, the system named is NRK1. Nature of the series: NAD+ levels in primary hepatocytes from control or NRK1 knockout mice. The settings on record: after 1 hour of treatment.
Series [1] can be described thus: Stability in FBS supplemented media. The series is classed as in vitro ADME. The procedure: (§1) NR degradation to NAM has been proposed as a limitation for its pharmacological efficacy. To evaluate whether NRH was also susceptible to degradation to NAM, we spiked NRH or NR in isolated mouse plasma. […] We also tested the stability of NRH in other matrixes. […] Finally, we also certified NRH stability in water (pH=7, at room temperature) for 48 h.

Series [2] can be described thus: Stability of NRH or NR spiked in isolated mouse plasma. The series is classed as in vitro ADME. The protocol:
as §1

The test system of series [3] is intracellular NRH, NMNH, NR and NMN. Nature of the series: Intracellular NAD-related metabolites after NRH or NR treatment. Format: cell-based. The note with it: for intracellular detection of NRH and NMNH: 5 minutes after treatment. An excerpt:
(§2) Levels of NRH and other NAD-related metabolites in biological samples were obtained by using a cold liquid-liquid extraction using a mixture of methanol:water:chloroform in 5:3:5 (v/v), from which the polar phase was recovered for hydrophilic interaction ultra-high performance liquid chromatography mass spectrometry (UHPLC-MS) analysis. The UHPLC consisted of a binary pump, a cooled autosampler, and a column oven (DIONEX Ultimate 3000 UHPLC+ Focused, Thermo Scientific), connected to a triple quadrupole spectrometer (TSQ Vantage, Thermo Scientific) equipped with a heated electrospray ionisation (H-ESI) source. Of each sample, 2 μL were injected into the analytical column (2.1 mm×150 mm, 5 μm pore size, 200 Å HILICON iHILIC®-Fusion(P)), guarded by a pre-column (2.1 mm×20 mm, 200 Å HILICON iHILIC®-Fusion(P) Guard Kit) operating at 35° C. The mobile phase (10 mM ammonium acetate at pH 9, A, and acetonitrile, B) was pumped at 0.25 mL/min flow rate over a linear gradient of decreasing organic solvent (0.5-16 min, 90-25% B), followed by re-equilibration for a total run time of 30 min. The MS operated in positive mode at 3500 V with multiple reaction monitoring (MRM). The software Xcalibur v4.1.31.9 (Thermo Scientific) was used for instrument control, data acquisition and processing. Retention time and mass detection was confirmed by authentic standards.
A path in which NRH would be converted to NMNH, then to NADH and this would be finally oxidized to NAD+.

Series [4] is classed as in vivo, mice. The procedure:
8 week-old C57BI/6NTac mice were orally gavaged with either saline (as vehicle), NR (500 mg/kg) or NRH (500 mg/kg). After 1 hour, liver, skeletal muscle and kidney NAD+ levels were evaluated. All results are expressed as mean+/−SEM of n=5 mice per group. * indicates statistical difference at p<0.05 vs. vs. saline-treated mice. # indicates statistical difference at p<0.05 vs. NR treated mice.
Oral administration of NRH led to very similar results to those observed after IP administration. […] NRH was detectable in plasma 1 h after oral administration. In contrast, NR levels were undetectable at 1 h after NR administration.

The nature of series [5]: Intraperitoneal injection of NR or NRH in mice: tissue NAD+ and circulating metabolites. Format: in vivo. The settings on record: for NAD+ levels in liver, muscle and kidney: mice, IP 500 mg/kg, after 1 h. The protocol: The above results prompted us to test whether NRH could act as an effective NAD+ precursor in vivo. For this, we first intraperitoneally (IP) injected mice with either NR or NRH (500 mg/kg). […] Importantly, NRH was detectable in circulation after IP injection.

Another series has as its system NMNAT. Nature of the series: NRH-induced NAD+ synthesis with the NMNAT inhibitor gallotannin. The series is classed as cell-based. The source says: As a follow-up step, NMNAT enzymes could catalyze the transition from NMNH to NADH.
Another series deals with INS1-cells. Nature of the series: NAD+ levels in INS1-cells after NRH treatment. The series is classed as cell-based. The protocol: (§3) The ability of NRH to potently increase NAD+ was tested as well in other cell type models.
The test system of another series is 3T3 fibroblasts. Nature of the series: NAD+ levels in 3T3 fibroblasts after NRH treatment. The series is classed as cell-based. The protocol:
as §3

The subject of another series is AML12 hepatocytes. Put plainly: Intracellular NAD+ levels in AML12 hepatocytes after NRH or NR treatment (dose-response, time course). The series is classed as cell-based.
From the text: as §2
Even at such relatively low dose, NRH achieved similar increases in intracellular NAD+ levels to those reached with NR at 50-fold higher concentrations. NRH achieved maximal effects on NAD+ synthesis around the millimolar range, managing to increase intracellular NAD+ levels by more than 10-fold.
NRH actions were also extremely fast (FIG. 3), as significant increases in NAD+ levels were observed within 5 minutes after NRH treatment.

The test system of series [6] is equilibrative nucleoside transporters (ENTs). Nature of the series: NRH-induced NAD+ synthesis under ENT blockade with NBTI. The note with it: in the presence of NBTI. Format: cell-based. The source says: In order to understand the exact path by which NRH synthesizes NAD+, we initially evaluated whether NRH, could be transported into the cell by equilibrative nucleoside transporters (ENTs).

In another series the test system is C2C12 myotubes. Put plainly: NAD+ levels in C2C12 myotubes after NRH treatment. The series is classed as cell-based. The procedure: as §3
The next series concerns the target T2, NAMPT (Mus musculus, UniProt Q99KQ4).
T2 construct: endogenous in cells
Put plainly: NRH action in the presence of the NAMPT inhibitor FK866. Format: cell-based. The note with it: with FK866, a NAMPT inhibitor.

The format of series [7] is physicochemical. The protocol: as §1
Details of series [8]: species or system mice. The settings on record: mouse, in vivo, 250 mg/kg. The procedure:
8 week-old C57BI/6NTac mice were orally gavaged with either saline (as vehicle), and NRH (250 mg/kg). After 2 hours, liver, skeletal muscle and kidney NRH levels were evaluated. All results are expressed as mean+/−SEM of n=4 mice per group, as areas under the signal by LC-MS analysis, corrected by total protein amount of tissue.

In series [9] the test system is Salmonella enterica serovar Typhimurium. Nature of the series: Anti-bacterial response of monocyte-derived macrophages against Salmonella (CFU counts). The series is classed as cell-based. The settings on record: 0.01 mM NRH for 42 h prior to infection, MOI 10.
Protocol: Monocyte-derived macrophages were treated with 0.01 mM NRH for 42 h prior to infection with Salmonella enterica serovar Typhimurium for 1 h using a multiplicity of infection of 10. Following infection, macrophages were treated with gentamicin for 2 h before cell lysis. Values show absolute colony forming unit (CFU) counts with each dot representing one donor and each line representing paired samples. Graphs show pooled data of 2 independent experiments with 2-3 donors/experiment.
Where [10] appears, read: isolated mouse plasma, 2 h of incubation.

T2 sequence (Q99KQ4 whole entry): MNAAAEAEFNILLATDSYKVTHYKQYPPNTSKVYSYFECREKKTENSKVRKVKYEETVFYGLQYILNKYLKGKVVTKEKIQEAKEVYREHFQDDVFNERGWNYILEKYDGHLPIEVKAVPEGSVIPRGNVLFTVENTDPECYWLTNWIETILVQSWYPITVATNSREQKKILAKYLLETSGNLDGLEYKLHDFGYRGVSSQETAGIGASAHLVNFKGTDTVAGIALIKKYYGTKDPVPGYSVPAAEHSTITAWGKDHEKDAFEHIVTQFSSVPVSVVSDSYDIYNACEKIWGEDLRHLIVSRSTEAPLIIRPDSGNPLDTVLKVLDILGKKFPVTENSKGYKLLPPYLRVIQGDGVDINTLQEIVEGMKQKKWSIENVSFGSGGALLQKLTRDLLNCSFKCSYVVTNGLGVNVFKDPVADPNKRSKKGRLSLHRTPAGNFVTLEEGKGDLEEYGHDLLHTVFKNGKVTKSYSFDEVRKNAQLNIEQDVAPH

As for `Nc1ncnc2nc(-c3ccc(N4CCOCC4)nc3)cc(-c3cccc(Br)c3)c12` [ABT-702], at adenosine kinase (AK), the “effect of AK inhibitor on the action of NRH (NAD+ synthesis)” value is on record as “confirmed”.
Regarding `NC(=O)c1ccc[n+]([C@@H]2O[C@H](CO)[C@@H](O)[C@H]2O)c1` [NR, 1-b-D-ribofuranosyl-3-pyridinecarboxamide salt, reference compound], the “NAD+ levels in NRK1 KO derived primary hepatocytes” value in the series on NRK1 is on record as “failed to increase NAD+ levels”. The “degradation to NAM” value in [1] (FBS supplemented media) is reported as “occurs”. In [2] (setting [10]), the “generation of NAM in plasma” value is listed as “increase in NAM” and the “levels of the compound in plasma” value is on record as “decayed”. Also, in series [3], the “intracellular detection of NRH and NMNH” value is given as “not”. Moreover, the “circulating NAM after NR treatment relative to NRH treatment” value in [4] (C57BI/6NTac, mouse, in vivo, po, 1 h) is reported as −4 fold. Also, the “NAD+ levels in liver, muscle and kidney” value in series [5] is given as “increased”.
Turning to `Nc1ncnc2c1c(I)cn2[C@@H]1O[C@H](CO)[C@@H](O)[C@H]1O` [5-IT, 5-iodotubercidin], at adenosine kinase (AK) (5-IT treatment), the “formation of NR and NMN after NRH treatment” value is recorded as “prevented”. Also, on adenosine kinase (AK), the “effect of AK inhibitor on the action of NRH (NAD+ synthesis)” value was “fully ablated the action of NRH”.
In the case of `O=C(OC[C@H]1O[C@@H](OC(=O)c2cc(O)c(O)c(OC(=O)c3cc(O)c(O)c(O)c3)c2)[C@H](OC(=O)c2cc(O)c(O)c(OC(=O)c3cc(O)c(O)c(O)c3)c2)[C@@H](OC(=O)c2cc(O)c(O)c(OC(=O)c3cc(O)c(O)c(O)c3)c2)[C@@H]1OC(=O)c1cc(O)c(O)c(OC(=O)c2cc(O)c(O)c(O)c2)c1)c1cc(O)c(O)c(OC(=O)c2cc(O)c(O)c(O)c2)c1` [gallotannin], the “effect of NMNAT inhibitor on NAD+ synthesis after NRH treatment” value with NMNAT is “largely compromised NAD+ synthesis after NRH treatment”. The “NRH action after gallotannin treatment” value with NMNAT (NRH at maximal doses (0.5 mM)) is “part of the NRH action remained”; with NMNAT (NRH at submaximal doses), “totally blocked”.
For `NC(=O)C1=CN([C@@H]2O[C@H](CO)[C@@H](O)[C@H]2O)C=CC1` [NRH, dihydro-1-beta-D-ribofuranosyl-3-pyridinecarboxamide], the “generation of NMNH, NADH and NAD+ from NRH” value at adenosine kinase (AK) (upon inhibition of AK, metabolomic analyses) is listed as “fully blunted”. Besides, in series [1], the “degradation to NAM” value is “did not degrade to NAM”. Further, in series [2], the “NR production in plasma” value is “did not lead to NR production”. Also, the “NAD+ levels” value with INS1-cells, in the series with 3T3 fibroblasts and in the series on C2C12 myotubes was “highly elevated NAD+ levels” throughout. Also, the “time to significant increase in NAD+ levels after treatment” value with AML12 hepatocytes (AML12 hepatocytes, FIG. 3) was at most 5 min. Further, the “increase of intracellular NAD+ levels at maximal effect” value in the series on AML12 hepatocytes (AML12 hepatocytes, around the millimolar range) was “more than 10 fold”. The “ability to increase intracellular NAD+” value in the series on AML12 hepatocytes (AML12 hepatocytes, compared with NR) was “superior to that of NR”. Moreover, the “concentration at which NAD+ levels are significantly increased” value in the series on AML12 hepatocytes (AML12 hepatocytes, dose-response, FIG. 2) is 10 µM. Also, the “NR concentration needed for similar increase in intracellular NAD+, relative to NRH” value with AML12 hepatocytes (NRH at 10 μM) came to 50 fold. Also, in series [6], the “capacity as extracellular NAD+ precursor under ENT blockade” value is listed as “largely lost its capacity as an extracellular NAD+ precursor”. For the same compound, the “intracellular detection of NRH and NMNH” value in [3] is given as “could be detected”. For the same compound, the “increase in intracellular NR and NMN” value in series [3] (after NRH treatment, compared with NR) is “greater than that triggered by NR itself”. Further, the “effect on hepatic NAD+ levels” value in [4] (mice, oral administration, compared with NR) is “more potent effect on hepatic NAD+ levels than NR”. Moreover, the “dependence of NRH action on NAMPT” value at NAMPT is “NAMPT-independent”. Also, in [7], the stability in water came to 48 h. The “NRH in liver, kidney and muscle” value in series [8] is listed as “found intact, in high levels”. In addition, the “NAD+ levels in liver, muscle and kidney” value in [5] is on record as “increased”. In series [5] (mouse, in vivo, ip), the “NR in circulation after NRH treatment” value is “much higher levels than those detected after NR injection itself”. Besides, in series [5] (mouse, in vivo, ip), the NRH in circulation entry was “detectable”. Moreover, the “NAM levels in circulation” value in [5] (mouse, in vivo, ip, 500 mg/kg) was “only a very mild increase”. Besides, in series [9], the “anti-bacterial macrophage response (CFU counts)” value is “able to augment anti-bacterial macrophage response”.
